pIC50: −log10 of the molar value. Positions of bridges follow the written chain, without caps; N, C: chain ends. Non-standard residues stand in square brackets, D forms with d. Residues, ends and D or L forms follow the SMILES beside them. Bip = N[C@@H](Cc1ccc(-c2ccccc2)cc1)C(=O)O; Orn = NCCC[C@H](N)C(=O)O; Dab = NCC[C@H](N)C(=O)O; Dap = NC[C@H](N)C(=O)O
target: T1, human PD-1 (Jurkat-PD-1 cells) / PE-labeled human PD-L1-Ig (Homo sapiens, UniProt Q15116); experiment: Jurkat-PD-1 Cell Binding High-Content Screening Assay (CBA); Jurkat hPD1-PDL1 assay; details: Jurkat HPD1-PDL1 IC50, Jurkat cell line over-expressing human PD-1; PE-labeled PD-L1-Ig 20 nM final; compound incubated 2 hours at 37° C.
T1 construct: expressed in transfected cells; host or cells: Jurkat cell line over-expressing human PD-1
How it was run: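 Compound was added to Jurkat-PD-1 cells in DMEM plus 10% fetal calf serum and incubated 2 hours at 37° C. Binding of phycoerythrin-conjugated PD-L1-Ig (20 nM final) to the cells was imaged.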

T1 sequence (Q15116 25-288): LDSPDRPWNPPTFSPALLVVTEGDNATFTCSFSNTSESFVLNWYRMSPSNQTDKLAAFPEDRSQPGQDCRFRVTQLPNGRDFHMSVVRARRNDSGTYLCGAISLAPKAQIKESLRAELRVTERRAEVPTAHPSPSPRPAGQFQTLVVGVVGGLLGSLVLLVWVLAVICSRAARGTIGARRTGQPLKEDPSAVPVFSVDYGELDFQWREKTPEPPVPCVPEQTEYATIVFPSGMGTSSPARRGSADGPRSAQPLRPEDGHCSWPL

Row | SMILES | pIC50
1 | CC(C)C[C@@H]1NC(=O)[C@H](Cc2c[nH]c3ccccc23)NC(=O)[C@H](CC(=O)O)NC(=O)[C@H](Cc2ccc(O)cc2)NC(=O)[C@H](Cc2ccccc2)NC(=O)CSC[C@@H](C(=O)NCC(N)=O)NC(=O)[C@H](CO)NC(=O)[C@H](C(C)C)NC(=O)[C@H](CC(C)C)NC(=O)[C@H](CC(N)=O)NC(=O)[C@H]2CCCN2C(=O)[C@H](CN)NC(=O)[C@H](C(C)C)NC(=O)[C@H](Cc2ccc(-c3ccccc3)cc2)NC1=O [Example 1406] ({CH2CO}-FYDWL[Bip]V[Dap][dP]NLVSCG-NH2; thioether N-14) | 6.46

same assay, conditions: Jurkat cell line over-expressing human PD-1; PE-labeled PD-L1-Ig 20 nM final; compound incubated 2 hours at 37° C.; read-out: Jurkat HPD1-PDL1 IC50

Row | SMILES | pIC50
2 | CC(C)C[C@@H]1NC(=O)[C@H](Cc2c[nH]c3ccccc23)NC(=O)[C@H](CC(=O)O)NC(=O)[C@H](Cc2ccc(O)cc2)NC(=O)[C@H](Cc2ccccc2)NC(=O)CSC[C@@H](C(=O)NCC(N)=O)NC(=O)[C@H]([C@@H](C)O)NC(=O)[C@H](C(C)C)NC(=O)[C@H](CC(C)C)NC(=O)[C@H](CC(N)=O)NC(=O)[C@H]2CCCN2C(=O)[C@H](CN)NC(=O)[C@H](C(C)C)NC(=O)[C@H](Cc2ccc(-c3ccccc3)cc2)NC1=O [Example 1404] ({CH2CO}-FYDWL[Bip]V[Dap][dP]NLVTCG-NH2; thioether N-14) | 6.41
3 | CC(C)C[C@@H]1NC(=O)[C@H](Cc2c[nH]c3ccccc23)NC(=O)[C@H](CC(=O)O)NC(=O)[C@H](Cc2ccc(O)cc2)NC(=O)[C@H](Cc2ccccc2)NC(=O)CSC[C@@H](C(=O)N[C@@H](C)C(N)=O)NC(=O)[C@H]([C@@H](C)O)NC(=O)[C@H](C(C)C)NC(=O)[C@H](CC(C)C)NC(=O)[C@H](CC(N)=O)NC(=O)[C@H]2CCCN2C(=O)[C@H](CN)NC(=O)[C@H](C(C)C)NC(=O)[C@H](Cc2ccc(-c3ccccc3)cc2)NC1=O [Example 1405] ({CH2CO}-FYDWL[Bip]V[Dap][dP]NLVTCA-NH2; thioether N-14) | 6.18
4 | CC(C)C[C@@H]1NC(=O)[C@H](Cc2c[nH]c3ccccc23)NC(=O)[C@H](CC(=O)O)NC(=O)[C@H](Cc2ccc(O)cc2)NC(=O)[C@H](Cc2ccccc2)NC(=O)CSC[C@@H](C(=O)NCC(N)=O)NC(=O)[C@H]([C@@H](C)O)NC(=O)[C@H](C(C)C)NC(=O)[C@H](CC(C)C)NC(=O)[C@H](CC(N)=O)NC(=O)[C@H]2CCCN2C(=O)[C@H](CCN)NC(=O)[C@H](C(C)C)NC(=O)[C@H](Cc2ccc(-c3ccccc3)cc2)NC1=O [Example 1411] ({CH2CO}-FYDWL[Bip]V[Dab][dP]NLVTCG-NH2; thioether N-14) | 6.36
5 | CC(C)C[C@@H]1NC(=O)[C@H](Cc2c[nH]c3ccccc23)NC(=O)[C@H](CC(=O)O)NC(=O)[C@H](Cc2ccc(O)cc2)NC(=O)[C@H](Cc2ccccc2)NC(=O)CSC[C@@H](C(=O)N[C@@H](C)C(N)=O)NC(=O)[C@H]([C@@H](C)O)NC(=O)[C@H](C(C)C)NC(=O)[C@H](CC(C)C)NC(=O)[C@H](CC(N)=O)NC(=O)[C@H]2CCCN2C(=O)[C@H](CCN)NC(=O)[C@H](C(C)C)NC(=O)[C@H](Cc2ccc(-c3ccccc3)cc2)NC1=O [Example 1412] ({CH2CO}-FYDWL[Bip]V[Dab][dP]NLVTCA-NH2; thioether N-14) | 6.32

Results, then the molecule that gave them:

Row | pIC50 | SMILES
6 | 6.55 | CC(C)C[C@@H]1NC(=O)[C@H](Cc2c[nH]c3ccccc23)NC(=O)[C@H](CC(=O)O)NC(=O)[C@H](Cc2ccc(O)cc2)NC(=O)[C@H](Cc2ccccc2)NC(=O)CSC[C@@H](C(=O)NCC(N)=O)NC(=O)[C@H]([C@@H](C)O)NC(=O)[C@H](C(C)C)NC(=O)[C@H](CC(C)C)NC(=O)[C@H](CCN)NC(=O)[C@H]2CCCN2C(=O)[C@H](CN)NC(=O)[C@H](C(C)C)NC(=O)[C@H](Cc2ccc(-c3ccccc3)cc2)NC1=O [Example 1407] ({CH2CO}-FYDWL[Bip]V[Dap][dP][Dab]LVTCG-NH2; thioether N-14)
7 | 6.55 | CC(C)C[C@@H]1NC(=O)[C@H](Cc2c[nH]c3ccccc23)NC(=O)[C@H](CC(=O)O)NC(=O)[C@H](Cc2ccc(O)cc2)NC(=O)[C@H](Cc2ccccc2)NC(=O)CSC[C@@H](C(=O)N[C@@H](C)C(N)=O)NC(=O)[C@H]([C@@H](C)O)NC(=O)[C@H](C(C)C)NC(=O)[C@H](CC(C)C)NC(=O)[C@H](CCN)NC(=O)[C@H]2CCCN2C(=O)[C@H](CN)NC(=O)[C@H](C(C)C)NC(=O)[C@H](Cc2ccc(-c3ccccc3)cc2)NC1=O [Example 1409] ({CH2CO}-FYDWL[Bip]V[Dap][dP][Dab]LVTCA-NH2; thioether N-14)
8 | 6.59 | CC(C)C[C@@H]1NC(=O)[C@H](Cc2c[nH]c3ccccc23)NC(=O)[C@H](CC(=O)O)NC(=O)[C@H](Cc2ccc(O)cc2)NC(=O)[C@H](CC(N)=O)NC(=O)CSC[C@@H](C(=O)N[C@@H](C)C(N)=O)NC(=O)[C@H]([C@@H](C)O)NC(=O)[C@H](C(C)C)NC(=O)[C@H](CC(C)C)NC(=O)[C@H](CCN)NC(=O)[C@H]2CCCN2C(=O)[C@H](CCCN)NC(=O)[C@H](C(C)C)NC(=O)[C@H](Cc2ccc(-c3ccccc3)cc2)NC1=O [Example 1402] ({CH2CO}-NYDWL[Bip]V[Orn][dP][Dab]LVTCA-NH2; thioether N-14)
9 | 6.85 | CC(C)C[C@@H]1NC(=O)[C@H](Cc2c[nH]c3ccccc23)NC(=O)[C@H](CC(=O)O)NC(=O)[C@H](Cc2ccc(O)cc2)NC(=O)[C@H](Cc2ccccc2)NC(=O)CSC[C@@H](C(=O)NCC(N)=O)NC(=O)[C@H](CO)NC(=O)[C@H](C(C)C)NC(=O)[C@H](CC(C)C)NC(=O)[C@H](CCN)NC(=O)[C@H]2CCCN2C(=O)[C@H](CN)NC(=O)[C@H](C(C)C)NC(=O)[C@H](Cc2ccc(-c3ccccc3)cc2)NC1=O [Example 1410] ({CH2CO}-FYDWL[Bip]V[Dap][dP][Dab]LVSCG-NH2; thioether N-14)
10 | 7.05 | CC(C)C[C@@H]1NC(=O)[C@H](Cc2c[nH]c3ccccc23)NC(=O)[C@H](CC(=O)O)NC(=O)[C@H](Cc2ccc(O)cc2)NC(=O)[C@H](Cc2ccccc2)NC(=O)CSC[C@@H](C(=O)N[C@@H](C)C(N)=O)NC(=O)[C@H](CO)NC(=O)[C@H](C(C)C)NC(=O)[C@H](CC(C)C)NC(=O)[C@H](CCN)NC(=O)[C@H]2CCCN2C(=O)[C@H](CN)NC(=O)[C@H](C(C)C)NC(=O)[C@H](Cc2ccc(-c3ccccc3)cc2)NC1=O [Example 1408] ({CH2CO}-FYDWL[Bip]V[Dap][dP][Dab]LVSCA-NH2; thioether N-14)
11 | 7.05 | CC(C)C[C@@H]1NC(=O)[C@H](Cc2c[nH]c3ccccc23)NC(=O)[C@H](CC(=O)O)NC(=O)[C@H](Cc2ccc(O)cc2)NC(=O)[C@H](Cc2ccccc2)NC(=O)CSC[C@@H](C(=O)NCC(N)=O)NC(=O)[C@H](CO)NC(=O)[C@H](C(C)C)NC(=O)[C@H](CC(C)C)NC(=O)[C@H](CC(N)=O)NC(=O)[C@H]2CCCN2C(=O)[C@H](CCN)NC(=O)[C@H](C(C)C)NC(=O)[C@H](Cc2ccc(-c3ccccc3)cc2)NC1=O [Example 1413] ({CH2CO}-FYDWL[Bip]V[Dab][dP]NLVSCG-NH2; thioether N-14)
12 | 7.15 | CC(C)C[C@@H]1NC(=O)[C@H](Cc2c[nH]c3ccccc23)NC(=O)[C@H](CC(=O)O)NC(=O)[C@H](Cc2ccc(O)cc2)NC(=O)[C@H](CC(N)=O)NC(=O)CSC[C@@H](C(=O)NCC(N)=O)NC(=O)[C@H](CO)NC(=O)[C@H](C(C)C)NC(=O)[C@H](CC(C)C)NC(=O)[C@H](CCN)NC(=O)[C@H]2CCCN2C(=O)[C@H](CCCN)NC(=O)[C@H](C(C)C)NC(=O)[C@H](Cc2ccc(-c3ccccc3)cc2)NC1=O [Example 1403] ({CH2CO}-NYDWL[Bip]V[Orn][dP][Dab]LVSCG-NH2; thioether N-14)

Reference: patent US20240360178A1, “MACROCYCLIC IMMUNOMODULATORS” (Bristol-Myers Squibb Company, priority 2021, published 2024)
